Earlier results on one compound are cited in US12365644B2, “Co-crystal of ketoprofen, lysine and gabapentin, pharmaceutical compositions and their medical use” (DOMPÉ FARMACEUTICI S.P.A., priority 2020, dated 2025).

The conditions of data set [1]: most common side effects.

In the case of `NCC1(CC(=O)O)CCCCC1` [Gabapentin], the “time to utmost level in plasma” value (after oral administration) was 3 to 4 h. For the same compound, where the note is “in vivo”, the “attachment to plasma proteins” value was “does not attach to plasma proteins”. In addition, the excretion half-life entry (renal excretion) is “roughly 6 hours”. In data set [1], the “side effect: ataxia” value is given as 13%, the “side effect: dizziness” value is recorded as 18%, the “side effect: fatigue” value is on record as 11% and the “side effect: somnolence” value was 20%.
